pIC50: −log10 of the molar value.
Key:
[1] = tested on: phospho-ERK in GP2D (KRAS-G12D) cells; assay: pERK In Cell Western (ICW) assay (Method B), GP2D; type: cell-based; details: GP2d, 3 h, Table 4
Protocol: pERK ICW is a high throughput screening assay to evaluate the cellular potency of mutant KRAS small molecule inhibitors. KRAS mutant cell lines AGS, GP2D (KRAS-G12D) as well as SW620 (KRAS-G12V) were purchased from ATCC and maintained respectively in RPMI/DMEM/RPMI medium supplemented with 10% fetal bovine serum.
Cells grown in exponential phase were trypsinized, resuspended in fresh media, and viable cells were counted using a cell counter with Trypan Blue (BioRad TC20). Cells were seeded into 384-well plate (Greiner 781091) at density of 5,000 cells/well for AGS and 10,000 cells/well for GP2D/SW620 and allowed to grow overnight in a 37° C. CO2 incubator. The next day, compounds were dispensed into wells with a ½ log, 9-point serial dilution using a Tecan D300e dispenser and incubated for 3 hours in a 37° C. CO2 incubator. Cells were then fixed with paraformaldehyde (Electron Microscopy Sciences, 15710, 4% final concentration) for 30 min, permeabilized with wash buffer (1×PBS+0.1% Triton X-100) for 30 min and blocked with Odyssey blocking buffer (Li—COR 927-70001) for 1 hour, all at room temperature (RT). Phospho-ERK antibody (CST 4370L) was diluted 1:500 in Odyssey T20 (PBS) antibody diluent (Li—COR 927-75001) and incubated with cells overnight at 4° C. The next day, plates were washed 5× with wash buffer, incubated with IRDye 800 CW, Goat anti-Rabbit secondary antibody (Li—COR 926-32211, 1:800) and DRAQ5 (CST 4084L, 1:5,000) diluted in Odyssey T20 (PBS) antibody diluent for 1 hour, washed 5×, and imaged on an Odyssey CLx imaging system.
For data analysis, signal intensities from 800 (phosphor-ERK) and 700 (DRAQ5) channels were extracted, and phospho-ERK signals were normalized to DRAQ5 signals for each well and percent of blank control values were computed. Data were then imported into Graphpad Prism to compute half-maximal inhibitory concentrations (IC50) using a 4-parameter variable slope model. Z-factor for each plate was computed from signals derived from wells treated with either DMSO or 5 μM of control compound. AGS pERK ICW (Method B) IC50 (uM) values of selected compounds are depicted in Table 2 with compounds having a value ≥0.001 uM to 0.01 uM as ++++; ≥0.01 uM to 0.1 uM as +++; ≥0.1 uM to 1 uM as ++; ≥1 uM to 10 uM as + and ≥10 uM as NA.

[2] = target: GST-tagged KRAS-G12V (2-169) (Homo sapiens, UniProt P01116, G12V); assay: Nucleotide exchange assay (NEA), SOS-mediated, HTRF, KRAS G12V; type: biochemical; details: Table 4; IC50 extracted at 90 min; 80 nM SOS
Sequence of GST-tagged KRAS-G12V (2-169) (P01116 2-169 isoform P01116-2 G12V): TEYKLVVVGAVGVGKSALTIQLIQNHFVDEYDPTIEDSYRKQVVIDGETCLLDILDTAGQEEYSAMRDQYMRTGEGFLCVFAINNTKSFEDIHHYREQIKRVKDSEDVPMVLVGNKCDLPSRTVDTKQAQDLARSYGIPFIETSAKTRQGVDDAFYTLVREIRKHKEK
Summary of the method: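 Exchange onto fluorescent GTP-DY-647P1 (150 nM final) catalysed by 80 nM SOS1cat was followed by Tb-anti-GST HTRF at RT for up to 90 min, after 1 h compound pre-incubation with 0.25 nM GST-tagged KRAS-G12V (2-169), pH 7.3. DMSO = 0%, no-SOS blank = 100%; 4-parameter IC50 taken at 90 min.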

[3] = target: GST-tagged KRAS-G12D (2-169) (Homo sapiens, UniProt P01116, G12D); assay: Nucleotide exchange assay (NEA), SOS-mediated, HTRF, KRAS G12D; type: biochemical; details: Table 4; IC50 extracted at 30 min; 20 nM SOScat; read-out: NEA G12D IC50
Sequence of GST-tagged KRAS-G12D (2-169) (P01116 2-169 isoform P01116-2 G12D): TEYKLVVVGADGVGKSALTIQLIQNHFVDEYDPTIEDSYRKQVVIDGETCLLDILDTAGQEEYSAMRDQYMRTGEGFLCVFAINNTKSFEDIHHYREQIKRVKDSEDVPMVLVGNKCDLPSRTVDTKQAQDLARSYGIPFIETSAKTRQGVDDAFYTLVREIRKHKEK
Summary of the method: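 SOS1cat-driven loading of fluorescent GTP-DY-647P1 (150 nM) onto GST-KRAS-G12D (2-169, 0.25 nM) read by time-resolved FRET; SOScat 20 nM, compound preincubated with KRAS 1 h at RT. Signal blanked to no-SOS reactions, normalized to DMSO; IC50 fitted from the 30-min read.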

[4] = tested on: phospho-ERK in SW620 (KRAS-G12V) cells; assay: pERK In Cell Western (ICW) assay (Method B), SW620; type: cell-based; details: Homo sapiens, SW-620, 3 h, Table 4
Summary of the method: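 After overnight attachment, cells received nine half-log compound concentrations for 3 hours, were fixed, permeabilized and probed with phospho-ERK antibody plus DRAQ5. Normalized pERK signal versus blank control yields IC50 via variable-slope four-parameter fit.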

Row | Compound | pIC50 [1] | pIC50 [2] | pIC50 [3] | pIC50 [4]
1 | N#Cc1c(N)sc2c1C1(CC2)CN(c2nc(OC[C@@]34CCCN3C[C@H](F)C4)nc(N3CCc4n[nH]c(N)c4C3)n2)C1 [Compound 35, 2-amino-1′-[4-(3-amino-2,4,6,7-tetrahydropyrazolo[4,3-c]pyridin-5-yl)-6-[[(2R,8S)-2-fluoro-1,2,3,5,6,7-hexahydropyrrolizin-8-yl]methoxy]-1,3,5-triazin-2-yl]spiro[5,6-dihydrocyclopenta[b]thiophene-4,3′-azetidine]-3-carbonitrile] | 4.70 to 6.00 | 4.70 to 6.00 | 6.00 to 7.00 | ≤ 4.70
2 | N#Cc1c(N)sc2c1C1(CC2)CN(c2nc(OCC3(C#N)CC3)nc(OCC3(CN4CCOCC4)CC3)n2)C1 [Compound 38, 2-amino-1′-[4-[(1-cyanocyclopropyl)methoxy]-6-[[1-(morpholinomethyl)cyclopropyl]methoxy]-1,3,5-triazin-2-yl]spiro[5,6-dihydrocyclopenta[b]thiophene-4,3′-azetidine]-3-carbonitrile] | 4.70 to 6.00 | > 8.00 | 7.00 to 8.00 | 6.00 to 7.00
3 | N#Cc1c(N)sc2c1C1(CCC2)CN(c2nc(OC[C@@]34CCCN3C[C@H](F)C4)nc(N3CCCC(C#N)CC3)n2)C1 (stereo partly drawn) [Compound 39, 2-amino-1′-[4-(4-cyanoazepan-1-yl)-6-[[(2R,8S)-2-fluoro-1,2,3,5,6,7-hexahydropyrrolizin-8-yl]methoxy]-1,3,5-triazin-2-yl]spiro[6,7-dihydro-5H-benzothiophene-4,3′-azetidine]-3-carbonitrile] | 4.70 to 6.00 | 7.00 to 8.00 | 7.00 to 8.00 | 4.70 to 6.00
4 | N#Cc1c(N)sc2c1C1(CC2)CN(c2nc(OC[C@@]34CCCN3C[C@H](F)C4)nc(N3CCCCC3C(N)=O)n2)C1 (stereo partly drawn) [Compound 40, 1-[4-(2-amino-3-cyano-spiro[5,6-dihydrocyclopenta[b]thiophene-4,3′-azetidine]-1′-yl)-6-[[(2R,8S)-2-fluoro-1,2,3,5,6,7-hexahydropyrrolizin-8-yl]methoxy]-1,3,5-triazin-2-yl]piperidine-2-carboxamide] | 4.70 to 6.00 | 4.70 to 6.00 | 6.00 to 7.00 | ≤ 4.70
5 | N#CCC12CC1CCN(c1nc(OC[C@@]34CCCN3C[C@H](F)C4)nc(N3CC4(CCc5sc(N)c(C#N)c54)C3)n1)C2 (stereo partly drawn) [Compound 43, 2-amino-1′-[4-[1-(cyanomethyl)-3-azabicyclo[4.1.0]heptan-3-yl]-6-[[(2R,8S)-2-fluoro-1,2,3,5,6,7-hexahydropyrrolizin-8-yl]methoxy]-1,3,5-triazin-2-yl]spiro[5,6-dihydrocyclopenta[b]thiophene-4,3′-azetidine]-3-carbonitrile] | 4.70 to 6.00 | 7.00 to 8.00 | 7.00 to 8.00 | 4.70 to 6.00
6 | N#Cc1c(N)sc2c1C1(CC2)CN(c2nc(OC[C@@]34CCCN3C[C@H](F)C4)nc(N3CCCCC3C#N)n2)C1 (stereo partly drawn) [Compound 44, 2-amino-1′-[4-(2-cyano-1-piperidyl)-6-[[(2R,8S)-2-fluoro-1,2,3,5,6,7-hexahydropyrrolizin-8-yl]methoxy]-1,3,5-triazin-2-yl]spiro[5,6-dihydrocyclopenta[b]thiophene-4,3′-azetidine]-3-carbonitrile] | 6.00 to 7.00 | 7.00 to 8.00 | 7.00 to 8.00 | 4.70 to 6.00
7 | N#Cc1c(N)sc2c1C1(CC2)CN(c2nc(OC[C@@]34CCCN3C[C@H](F)C4)nc(N3CCCC4(C3)NC(=O)NC4=O)n2)C1 (stereo partly drawn) [Compound 45, 2-amino-1′-[4-(2,4-dioxo-1,3,9-triazaspiro[4.5]decan-9-yl)-6-[[(2R,8S)-2-fluoro-1,2,3,5,6,7-hexahydropyrrolizin-8-yl]methoxy]-1,3,5-triazin-2-yl]spiro[5,6-dihydrocyclopenta[b]thiophene-4,3′-azetidine]-3-carbonitrile] | 6.00 to 7.00 | > 8.00 | > 8.00 | 4.70 to 6.00
8 | C[C@@]1(O)C[C@@H](O)CN(c2nc(OC[C@@]34CCCN3C[C@H](F)C4)nc(N3CC4(CCc5sc(N)c(C#N)c54)C3)n2)C1 [Compound 47, 2-amino-1′-[4-[(3R,5R)-3,5-dihydroxy-3-methyl-1-piperidyl]-6-[[(2R,8S)-2-fluoro-1,2,3,5,6,7-hexahydropyrrolizin-8-yl]methoxy]-1,3,5-triazin-2-yl]spiro[5,6-dihydrocyclopenta[b]thiophene-4,3′-azetidine]-3-carbonitrile] | 6.00 to 7.00 | > 8.00 | > 8.00 | ≤ 4.70
9 | CC1(O)CCCCN(c2nc(OC[C@@]34CCCN3C[C@H](F)C4)nc(N3CC4(CCc5sc(N)c(C#N)c54)C3)n2)C1 (stereo partly drawn) [Compound 48, 2-amino-1′-[4-(3-hydroxy-3-methyl-azepan-1-yl)-6-[[(2R,8S)-2-fluoro-1,2,3,5,6,7-hexahydropyrrolizin-8-yl]methoxy]-1,3,5-triazin-2-yl]spiro[5,6-dihydrocyclopenta[b]thiophene-4,3′-azetidine]-3-carbonitrile] | 6.00 to 7.00 | > 8.00 | 7.00 to 8.00 | 6.00 to 7.00
10 | C[C@@]1(O)CCCN(c2nc(OC[C@@]34CCCN3C[C@H](F)C4)nc(N3CC4(C3)SCc3sc(N)c(C#N)c34)n2)C1 [Compound 49, 2-amino-1′-[4-[[(2R,8S)-2-fluoro-1,2,3,5,6,7-hexahydropyrrolizin-8-yl]methoxy]-6-[(3R)-3-hydroxy-3-methyl-1-piperidyl]-1,3,5-triazin-2-yl]spiro[6H-thieno[2,3-c]thiophene-4,3′-azetidine]-3-carbonitrile] | > 8.00 | > 8.00 | > 8.00 | 6.00 to 7.00
11 | N#Cc1c(N)sc2c1C1(CC2)CN(c2nc(OC[C@@]34CCCN3C[C@H](F)C4)nc(N3CCCCC(O)C3)n2)C1 (stereo partly drawn) [Compound 50, 2-amino-1′-[4-(3-hydroxyazepan-1-yl)-6-[[(2R,8S)-2-fluoro-1,2,3,5,6,7-hexahydropyrrolizin-8-yl]methoxy]-1,3,5-triazin-2-yl]spiro[5,6-dihydrocyclopenta[b]thiophene-4,3′-azetidine]-3-carbonitrile] | 6.00 to 7.00 | 7.00 to 8.00 | 7.00 to 8.00 | 6.00 to 7.00
12 | C[C@@]1(O)CCCN(c2nc(OC[C@@]34CCCN3C[C@H](F)C4)nc(N3CC4(C3)c3c(sc(N)c3C#N)CC3CC34)n2)C1 (stereo partly drawn) [Compound 51, 2-amino-1′-[4-[[(2R,8S)-2-fluoro-1,2,3,5,6,7-hexahydropyrrolizin-8-yl]methoxy]-6-[(3R)-3-hydroxy-3-methyl-1-piperidyl]-1,3,5-triazin-2-yl]spiro[4a,5,5a,6-tetrahydrocyclopropa[f]benzothiophene-4,3′-azetidine]-3-carbonitrile] | 6.00 to 7.00 | 7.00 to 8.00 | 7.00 to 8.00 | 4.70 to 6.00
13 | CC1(NC#N)CCCN(c2nc(OC[C@@]34CCCN3C[C@H](F)C4)nc(N3CC4(CCc5sc(N)c(C#N)c54)C3)n2)C1 (stereo partly drawn) [Compound 52, [1-[4-(2-amino-3-cyano-spiro[5,6-dihydrocyclopenta[b]thiophene-4,3′-azetidine]-1′-yl)-6-[[(2R,8S)-2-fluoro-1,2,3,5,6,7-hexahydropyrrolizin-8-yl]methoxy]-1,3,5-triazin-2-yl]-3-methyl-3-piperidyl]cyanamide] | 6.00 to 7.00 | 7.00 to 8.00 | 7.00 to 8.00 | 4.70 to 6.00
